Where “and” joins values, the source holds several entries; their conditions need not be identical. Equal values may be shown once. Read-outs that look alike come from different tables or passages of the source.

In general, Km refers to the concentration of substrate that gives half-maximal velocity. As a reminder, the inhibition is the drop in the measured response relative to a control, in per cent.

For one data set, the system named is Human liver microsomes. The following applies: cited from earlier work.
The next data set concerns Beagle dogs. The following applies: cited from earlier work.
A further data set deals with patients. The following applies: cited from earlier work; for arrhythmia risk category: associated risk of arrhythmia and possible TdP risk, ref Fanoe et al. 2014; for effect on QTc-interval and risk for torsades de pointes (TdP): patients; for risk group classification: ref www.crediblemeds.org.
Data set [1] deals with Beagle dog liver microsomes. The experiment in a line: Kinetic study: N-demethylation of CIT and DCIT in Beagle dog liver microsomes. The following applies: for IC of N-demethylation, Beagle dogs versus humans: liver microsomes, dog data of this study compared with literature human data; for Km1 / Km2 / Vmax1 / Vmax2: dog liver microsomes. In kind it is in vitro ADME. (In general: Microsomes from liver hold many membrane-bound enzymes, among them those of drug oxidation.)

Assay in data set [2]: as above
Format: in vitro ADME. The following applies: Beagle, dog, liver microsomes, pH 7.4.

For data set [3] the following is noted: in dogs; ref Matsui et al. 1995; cited from earlier work.
Data set [4] deals with serotonin [5-hydroxytryptamine (5-HT)] reuptake. The following applies: compared with S-CIT; ref Hyttel et al. 1992; Hyttel 1993; cited from earlier work.
Data set [5] relates to dog liver microsomes (CYP2D15, CYP3A12, CYP2C21/41). Format: in vitro ADME, Beagle dog. The following applies: for effect on the production of the DCIT and DDCIT enantiomers: dog liver microsomes, data not shown.
The subject of data set [6] is N-demethylation of DCIT; CYP3A12 (ketoconazole), CYP2C21/41 (omeprazole). Format: in vitro ADME, Beagle dog. The following applies: Beagle, dog, liver microsomes, pH 7.4, probe DCIT 10 and 100 μM, formation of DDCIT.
Data set [7] deals with N-demethylation of DCIT; CYP2D15 (quinidine). In kind it is in vitro ADME, Beagle dog. The following applies: Beagle, dog, liver microsomes.
The mark [8] stands for this setting: substrate CIT, metabolite R-DCIT.
The mark [9] stands for this setting: substrate CIT, metabolite S-DCIT.
Setting [10] is: substrate DCIT, metabolite DDCIT.
[11] abbreviates: substrate DCIT, metabolite R-DDCIT.
[12] abbreviates: substrate DCIT, metabolite S-DDCIT.
Where [13] appears, read: 100 μM quinidine, 10 μM DCIT, n = 3.

With `CN(C)CCCC1(c2ccc(F)cc2)OCc2cc(C#N)ccc21` (stereo not shown) [CIT, citalopram], in the data set on Human liver microsomes (read-out: Km values, stereoselective CIT N-demethylation, human liver microsomes, ref Rochat et al. 1997, Olesen and Linnet 1999, von Moltke et al. 2001), the Km is at least 17.3 µM. Also, in the data set with Beagle dogs (dogs, ref Boeck and Overo 1982), the “convulsive effect in dogs” value is recorded as “severe convulsive attacks” and the “electrocardiographic changes in dogs” value is “no electrocardiographic changes were observed”. Further, in the data set with patients, the arrhythmia risk category entry is given as “Class B”; the “effect on QTc-interval and risk for torsades de pointes (TdP)” value is reported as “increase the QTc-interval”; the risk group classification entry is “risk group 1”. Besides, the “IC of N-demethylation, Beagle dogs versus humans” value in data set [1] is recorded as “about 10 times higher”. Besides, in data set [1] (substrate CIT, metabolite DCIT), the Km1 was 1.1 µM and 1.1 ± 0.3 µM; the Km2 was 1 006 μM; the Vmax1 is given as 47 ± 3 pmol/(min × mg of protein); the Vmax2 is listed as 591 ± 28 pmol/(min × mg of protein). Further, in data set [1] (setting [8]), the Km1 came to 1.4 ± 0.5 µM, the Vmax1 was 21 ± 2 pmol/(min × mg of protein) and the Vmax2 was 338 ± 24 pmol/(min × mg of protein). In data set [1] (setting [9]), the Km1 worked out at 1.0 ± 0.2 µM, the Km2 was determined as 848 ± 69 µM, the Vmax1 was 26 ± 1 pmol/(min × mg of protein) and the Vmax2 was 264 ± 10 pmol/(min × mg of protein). In addition, the Km at 1 h in [2] was at most 1.4 µM. In [3], the mean elimination half-life is 9.6 h.

In the case of `CNCCCC1(c2ccc(F)cc2)OCc2cc(C#N)ccc21` (stereo not shown) [DCIT, desmethylcitalopram], in data set [4], the “potency as serotonin reuptake inhibitors” value is listed as “lower than that of S-CIT”. For the same compound, in the data set on Human liver microsomes (humans, ref von Moltke et al. 2001), the “IC values, N-demethylation of DCIT enantiomers” value was ≤ 1.3 pmol/(min × mg protein). In addition, the Km in the data set on Human liver microsomes (read-out: Km values, N-demethylation of DCIT enantiomers, humans, ref von Moltke et al. 2001) was at least 72 µM. Further, the “IC of N-demethylation, Beagle dogs versus humans” value in data set [1] is reported as “about 30 times higher”. Also, in data set [1] (setting [10]), the Km1 worked out at 0.6 ± 0.2 µM, the Km2 worked out at 137 ± 18 µM, the Vmax1 was 44 ± 4 pmol/(min × mg of protein) and the Vmax2 is 155 ± 5 pmol/(min × mg of protein). Besides, in [1] (setting [11]), the Km1 came out at 0.3 ± 0.2 µM; the Km2 is 212 µM and 212 ± 24 µM; the Vmax1 was 11 ± 2 pmol/(min × mg of protein); the Vmax2 is listed as 105 ± 3 pmol/(min × mg of protein). Besides, in data set [1] (setting [12]), the Km1 was 0.6 ± 0.1 µM; the Km2 was 66 µM and 66 ± 11 µM; the Vmax1 is on record as 31 ± 3 pmol/(min × mg of protein); the Vmax2 is 55 ± 2 pmol/(min × mg of protein). In addition, the Km at 1 h in data set [2] was at most 1.4 µM. The mean elimination half-life in data set [3] is given as 8.1 h.

Regarding `N#Cc1ccc2c(c1)COC2(CCCN)c1ccc(F)cc1` (stereo not shown) [DDCIT, didesmethylcitalopram], the “potency as serotonin reuptake inhibitors” value in data set [4] was “lower than that of S-CIT”. The “plasma level to which DDCIT toxicity is related” value with Beagle dogs (dog, ref Shanks et al. 2009) is ≥ 1 000 nM and ≥ 300 ng/ml. In addition, in data set [3], the mean elimination half-life is given as 27.8 h.

As for `CN(C)CCC[C@@]1(c2ccc(F)cc2)OCc2cc(C#N)ccc21` [S-CIT, S-citalopram], in the data set on patients, the arrhythmia risk category entry was “Class B”; the “effect on QTc-interval and risk for torsades de pointes (TdP)” value is listed as “increase the QTc-interval”; the risk group classification entry was “risk group 1”.

For the compound `Cc1nc2c([nH]1)c(=O)n(C)c(=O)n2Cc1ccco1` [furafylline], the “effect on the production of the DCIT and DDCIT enantiomers” value in data set [5] is given as “did not notably modify”.

`CC(=O)N1CCN(c2ccc(OCC3COC(Cn4ccnc4)(c4ccc(Cl)cc4Cl)O3)cc2)CC1` (stereo not shown) [ketoconazole] had an inhibition at 1 h in [6] below 15%.

In data set [6], `COc1ccc2[nH]c([S+]([O-])Cc3ncc(C)c(OC)c3C)nc2c1` (stereo not shown) [omeprazole] came in with an inhibition at 1 h below 15%.

For `C=C[C@H]1C[N@@]2CC[C@H]1C[C@@H]2[C@@H](O)c1ccnc2ccc(OC)cc12` [quinidine], the inhibition at 1 h, 100 μM in data set [7] (pH 7.4, probe DCIT 10 μM, formation of R-DDCIT) came out at 80.5%; in [7] (pH 7.4, probe DCIT 10 μM, formation of S-DDCIT) it was 86.4%; in data set [7] (pH 7.4, probe DCIT 100 μM, formation of R-DDCIT), 61.6%; in [7] (pH 7.4, probe DCIT 100 μM, formation of S-DDCIT) it was 57.6%. Further, the “difference in the production of S-DCIT from CIT in comparison to absence of the inhibitor” value in [5] (100 μM quinidine, 10 μM CIT, n = 5) is 36.9 ± 8.53 pmol/(min × mg protein). Further, the “difference of the production of R-DDCIT in comparison to absence of the inhibitor” value in data set [5] (setting [13]) is listed as 63.3 ± 2.72 pmol/(min × mg protein). Also, the “difference of the production of S-DDCIT in comparison to absence of the inhibitor” value in [5] (setting [13]) is recorded as 172 ± 6.6 pmol/(min × mg protein).

As for `Nc1ccc(S(=O)(=O)Nc2ccnn2-c2ccccc2)cc1` [sulphaphenazole], the “effect on the production of the DCIT and DDCIT enantiomers” value in data set [5] is on record as “did not notably modify”.

(Values after publication PMC10581520 (Veterinární Medicína, 2023).)
